{"source": "paper PMC7279002", "about": "“Novel 3′-Substituted-1′,2′,4′-Oxadiazole Derivatives of 18βH-Glycyrrhetinic Acid and Their O-Acylated Amidoximes: Synthesis and Evaluation of Antitumor and Anti-Inflammatory Potential In Vitro and In Vivo” (International Journal of Molecular Sciences, 2020)", "key": {"[1]": {"tested_on": "human cervical carcinoma HeLa", "experiment": "MTT cytotoxicity assay, 48 h", "assay_type": "cell-based", "procedure,_shortened": "(§1)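 Cells were seeded at 10^4 per well, grown 24 h, then exposed to derivatives (0.5–50 µM, DMSO vehicle) for 48 h at 37 °C, 5% CO2 in DMEM/10% FBS. Viability was read by MTT (0.5 mg/mL final, 2 h; A570/620). IC50 was the concentration reducing A570 to 50% of control, from dose–response curves.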"}, "[2]": {"tested_on": "human cervical carcinoma KB-3-1", "experiment": "MTT cytotoxicity assay, 48 h", "assay_type": "cell-based", "procedure,_shortened": "as §1"}, "[3]": {"tested_on": "human duodenal carcinoma HuTu-80", "experiment": "MTT cytotoxicity assay, 48 h", "assay_type": "cell-based", "procedure,_shortened": "as §1"}, "[4]": {"tested_on": "human lung adenocarcinoma A549", "experiment": "MTT cytotoxicity assay, 48 h", "assay_type": "cell-based", "details": "Homo sapiens, A549; MTT, 48 h", "procedure,_shortened": "as §1"}, "[5]": {"tested_on": "murine melanoma B16", "experiment": "MTT cytotoxicity assay, 48 h", "assay_type": "cell-based", "procedure,_shortened": "as §1"}, "[6]": {"tested_on": "nontransformed human fibroblasts hFF3", "experiment": "MTT cytotoxicity assay, 48 h", "assay_type": "cell-based", "details": "Homo sapiens, HFF-3, read-out: IC50, µM Fibroblast hFF3", "procedure,_shortened": "as §1"}, "[7]": {"tested_on": "HeLa cells", "experiment": "Mitochondrial membrane potential (JC-1, flow cytometry)", "assay_type": "cell-based, human", "details": "48 h, JC-1, HeLa", "procedure": "HeLa cells were cultured in 24-well plates for 24 h under standard conditions and treated by 5f at 7 or 10 µM for a subsequent 48 h. After the treatment, the cells were collected and resuspended at 10^6 cells/mL in PBS-contained JC-1 (5 µg/mL). After 30 min of incubation under standard conditions, the cells were centrifuged, washed with PBS, and analyzed using the NovoCyte Flow Cytometer (ACEA Biosciences Inc., San Diego, CA, USA). In total, 10,000 events were acquired for each sample."}}, "data": [{"smiles": "CC1(C)C2CC[C@]3(C)C(C(=O)C=C4[C@@H]5C[C@@](C)(c6nc(-c7ccccn7)no6)CC[C@]5(C)CC[C@]43C)[C@@]2(C)CC[C@@H]1O", "note": "(stereo partly drawn) [Compound 5f, 30-nor-3β-hydroxy-11-oxo-20-(3′-(pyridin-2′′-yl)-1′,2′,4′-oxadiazol-5′-yl)-18βH-olean-12-en]", "values": [{"measurement": "IC50", "setting": "[1]; Homo sapiens, HeLa, MTT, 48 h, read-out: IC50, µM Cervix HeLa", "value": "3.6 ± 0.5", "unit": "µM"}, {"measurement": "Selectivity index: HeLa", "setting": "[1]; IC50 in hFF3 / IC50 in HeLa", "value": "> 13.9"}, {"measurement": "IC50", "setting": "[2]; Homo sapiens, KB 3-1, MTT, 48 h, read-out: IC50, µM Cervix KB-3-1", "value": "4.7 ± 0.1", "unit": "µM"}, {"measurement": "Selectivity index: KB-3-1", "setting": "[2]; IC50 in hFF3 / IC50 in KB-3-1", "value": "> 10.6"}, {"measurement": "IC50", "setting": "[3]; Homo sapiens, HuTu80, MTT, 48 h, read-out: IC50, µM Duodenum HuTu-80", "value": "3.8 ± 0.3", "unit": "µM"}, {"measurement": "Selectivity index: HuTu-80", "setting": "[3]; IC50 in hFF3 / IC50 in HuTu-80", "value": "> 13.2"}, {"measurement": "IC50", "setting": "[4]", "value": "> 50", "unit": "µM"}, {"measurement": "Selectivity index: B16", "setting": "[5]; IC50 in hFF3 / IC50 in B16", "value": "> 5.3"}, {"measurement": "IC50", "setting": "[5]; Mus musculus, MTT, 48 h", "value": "9.4 ± 0.4", "unit": "µM"}, {"measurement": "IC50", "setting": "[6]", "value": "> 50", "unit": "µM"}, {"measurement": "cells with collapsed membrane potential (gate P3)", "setting": "[7]; 7 µM", "value": 72.5, "unit": "%"}, {"measurement": "cells with collapsed membrane potential (gate P3)", "setting": "[7]; 10 µM", "value": 85.2, "unit": "%"}]}]}
